In patent publication US20060188501A1, “Diagnostic and therapeutic agents for rheumatoid arthritis” (Kyowa Hakko Kogyo Co., Ltd., priority 2000, published 2006):

System: Synoviocytes derived from a rheumatoid arthritis patient
Test: Growth of synoviocytes measured by MTT assay
Format: cell-based, human
Conditions: genistein 1.5, 3, 6, 12.5 and 25 μg/ml, 7 days culture, FIG. 2
Procedure: That is, synoviocytes obtained from a rheumatoid arthritis patient by surgery were minced, followed by enzyme treatment in RPMI1640 medium containing collagenase (4 mg/ml) at 37° C. for 4 hours to loosen the cells. The obtained cells were cultured in a growth medium (RPMI1640 containing 10% fetal calf serum) in a humidified CO2 incubator (5% CO2), with replacement of the growth medium at intervals of 3 to 4 days. When the cells grew to be subconfluent, the cells were subcultured at the ratio of 1:2 to 1:4 (that is, the cells were collected, transferred into other culture flasks in 1/2 to 1/4 portions and cultured in a fresh growth medium). Subculturing was repeated for 7 to 15 passages and the resulting cells were used in the following experiments.
The growth of synoviocytes was measured by the assay using MTT [3,(4,5-dimethylthiazol-2-yl)2,5-diphenyl-tetrazolium bromide]
Synoviocytes derived from a rheumatoid arthritis patient which were prepared in the same manner as in Example 1 were seeded on a 96-well microplate in an amount of 5×10^3 cells/well and precultured in the growth medium at 37° C. overnight. […] Then, 100 μl of dimethyl sulfoxide was added to dissolve the fomazan complex and the absorbance at the wavelength of 590 nm was measured with 96-well multiscanner Immno-Mini (Japan Inter Med) as the degree of cell growth. […]

## O=c1c(-c2ccc(O)cc2)coc2cc(O)cc(O)c12 [genistein]
  growth of synoviocytes (absorbance at 590 nm, MTT): inhibited in a manner dependent on the genistein concentration
